Assay results as given in ChEMBL document CHEMBL3137667, “[Drug-induced liver injury; fourteenth updated edition of the bibliographic database of liver injuries and related drugs]” (Gastroenterol Clin Biol, 2004).

What was measured:
[1] = human
[2] = Highest frequency of moderate liver toxicity observed during clinical trials, expressed as a percentage. [column '% BIOL' in source]; conditions: human
[3] = human; remark: listed apart in the source
[4] = Times to onset, minimal and maximal, observed in the indexed observations. [column 'DELAI' in source]; conditions: human
[5] = Highest frequency of acute liver toxicity observed during clinical trials, expressed as a percentage. [column '% AIGUE' in source]; conditions: human
[6] = human, serum, 4383 h
[7] = human, serum
[8] = human; remark: listed apart in the source
[9] = human; remark: listed apart in the source
[10] = human; remark: listed apart in the source
[11] = human, serum; remark: listed apart in the source
[12] = Presence of at least one case with successful reintroduction. [column 'REINT' in source]; conditions: human
[13] = human; remark: listed apart in the source
[14] = human; remark: listed apart in the source
[15] = human; remark: listed apart in the source
[16] = human; remark: listed apart in the source
[17] = human; remark: listed apart in the source
[18] = Proposed mechanism(s) of liver damage. [column 'MEC' in source]; conditions: human
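For Hepatotoxicity (association with vascular disease) in this document: count of indexed literature references reporting vascular liver injury in humans, e.g. peliosis hepatitis, hepatic veno-occlusive disease or Budd-Chiari syndrome.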
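For Hepatotoxicity (benign tumour) in this document: value is a count of indexed literature references citing a benign tumour confirmed by histopathology.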
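For Hepatotoxicity (choleostasis) in this document: human cholestatic liver injury, shown by histopathology or by peak ALT or AST elevation over alkaline phosphatase ratio below 2, value counts indexed literature reports.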
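For Hepatotoxicity (chronic liver disease) in this document: chronic liver injury confirmed by histopathology or persistently raised serum aminotransferase activity beyond 6 months, value given as the count of indexed literature references.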
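For Hepatotoxicity (cirrhosis) in this document: value is a count of indexed literature references reporting cirrhosis confirmed by histopathology.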
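For Hepatotoxicity (cytolytic) in this document: human cytolytic liver injury, shown by histopathology or by a ratio above 5 of peak ALT or AST elevation to alkaline phosphatase elevation, value counts indexed references.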
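For Hepatotoxicity (granulomatous hepatitis) in this document: value is a count of indexed literature references reporting granulomatous liver disease confirmed by histopathology.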
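For Hepatotoxicity (malignant tumour) in this document: malignant tumour confirmed by histopathology, value gives the count of indexed literature references reporting it.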
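For Hepatotoxicity (severe hepatitis) in this document: human clinical data: severe hepatitis, meaning potentially life-threatening liver failure or clinically observed cases, the value counts how many indexed literature references report it.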
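For Hepatotoxicity (steatosis) in this document: steatosis confirmed by histopathology, value is the count of indexed references.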

| SMILES | Hepatotoxicity (association with vascular disease) [1] | Hepatotoxicity (moderate) [2] [%] | Hepatotoxicity (benign tumour) [3] | Hepatotoxicity (time to onset) [4] | Hepatotoxicity (acute) [5] [%] | Hepatotoxicity (chronic liver disease) [6] | Hepatotoxicity (moderate) [7] | Hepatotoxicity (severe hepatitis) [8] | Hepatotoxicity (animal toxicity known) [9] | Hepatotoxicity (malignant tumour) [10] | Hepatotoxicity (acute) [11] | Hepatotoxicity (successful reintroduction) [12] | Hepatotoxicity (choleostasis) [13] | Hepatotoxicity (steatosis) [14] | Hepatotoxicity (cirrhosis) [15] | Hepatotoxicity (granulomatous hepatitis) [16] | Hepatotoxicity (cytolytic) [17] | Hepatotoxicity (mechanism) [18] | also measured |
| --- | --- | --- | --- | --- | --- | --- | --- | --- | --- | --- | --- | --- | --- | --- | --- | --- | --- | --- | --- |
| C[C@H]1O[C@H](O[C@H]2[C@H](O)[C@@H](O)[C@@H](O[C@H]3[C@H](O)[C@@H](O)C(O)O[C@@H]3CO)O[C@@H]2CO)[C@H](O)[C@@H](O)[C@@H]1N[C@H]1C=C(CO)[C@@H](O)[C@H](O)[C@H]1O (stereo partly specified) [ACARBOSE] | 0 | 9.9 | 0 | 1 week - 1.5 years | 0 | 0 | 6 | 0 | yes | 0 | 7 | yes | 0 | 0 | 0 | 0 | 6 | – | – |
| Cc1nnc2n1-c1ccc(Cl)cc1C(c1ccccc1)=NC2 [ALPRAZOLAM] | 1 | 8 | 0 | 3 days - 3 weeks | 0.4 | 0 | 3 | 1 | A | 0 | 4 | yes | 1 | 0 | 0 | 0 | 2 | Dose-dependant | – |
| C[C@@H]1[C@H](O)[C@@H](C)/C=C/C=C/C=C/C=C/C=C/C=C/C=C/[C@H](O[C@@H]2O[C@H](C)[C@@H](O)[C@H](N)[C@@H]2O)C[C@@H]2O[C@](O)(C[C@@H](O)C[C@@H](O)[C@H](O)CC[C@@H](O)C[C@@H](O)CC(=O)O[C@H]1C)C[C@H](O)[C@H]2C(=O)O [AMPHOTERICIN B] | 0 | 91.7 | 0 | 2 days - 4 months | 50 | 0 | 28 | 4 | yes | 0 | 15 | yes | 7 | 2 | 0 | 0 | 6 | Dose-dependant | – |
| C[C@H](CCC(=O)O)[C@H]1CC[C@H]2[C@@H]3[C@H](O)C[C@@H]4C[C@H](O)CC[C@]4(C)[C@H]3CC[C@]12C [CHENODIOL] | 0 | 37 | 0 | 3 weeks - 3 months | 3 | 1 | 22 | 0 | yes | 0 | 5 | yes | 2 | 0 | 0 | 0 | 3 | Dose-dependant | – |
| O=c1ccc2ccccc2o1 [COUMARIN] | 0 | 8.7 | 0 | 5 days - 6 months | 4.3 | 0 | 8 | 3 | yes | 0 | 16 | yes | 1 | 0 | 0 | 0 | 11 | Dose-dependant | – |
| O=C1c2cccc(O)c2C(=O)c2c(O)cccc21 [DANTHRON] | 0 | 0 | 0 | 2 days - 1 year | 0 | 1 | 1 | 0 | yes | 0 | 0 | yes | 0 | 0 | 0 | 0 | 0 | – | – |
| COC1=CC(=O)C[C@@H](C)[C@]12Oc1c(Cl)c(OC)cc(OC)c1C2=O [GRISEOFULVIN] | 0 | 50 | 0 | 3 days - 4.5 months | 2.8 | 0 | 9 | 0 | yes | 0 | 5 | yes | 2 | 0 | 0 | 0 | 1 | – | – |
| N=C(N)c1ccc(OCCCCCOc2ccc(C(=N)N)cc2)cc1 [PENTAMIDINE] | 0 | 43.5 | 0 | 1 week - 3 months | 0 | 0 | 17 | 2 | yes | 0 | 4 | yes | 0 | 1 | 0 | 0 | 4 | – | – |
| N[C@@H]1C[C@H]1c1ccccc1.N[C@H]1C[C@@H]1c1ccccc1 [TRANYLCYPROMINE] | 0 | – | 0 | – | – | 0 | 0 | – | yes | 0 | 2 | yes | – | 0 | 0 | – | – | – | Hepatotoxicity (moderate) ([2]; Liver): 0%; Hepatotoxicity (acute) ([5]; Liver): 0%; Hepatotoxicity (severe hepatitis) ([8]; Liver): 0; Hepatotoxicity (choleostasis) ([13]; Liver): 2; Hepatotoxicity (granulomatous hepatitis) ([16]; Liver): 0; Hepatotoxicity (cytolytic) ([17]; Liver): 2 |
